Test results from patent EP4610269A1, “UROKINASE PLASMINOGEN ACTIVATOR SURFACE RECEPTOR (UPAR) LIGANDS FOR DIAGNOSTIC OR THERAPEUTIC USE” (3B Pharmaceuticals GmbH, priority 2024, dated 2025).
Where two headings read alike, the source gives them in different places. *1 amine or outer side, *2 acyl side, *3 side chain or, on linkers, in order; H or OH if unused. Where a SMILES comes first, the peptide text is derived from it. Bridges are numbered along the chain shown (N, C = ends). [ ]: non-standard residue; d: D form. The star is where a group is joined. X4 = C[N+](C)(CCCC[C@H](NC(=O)CN1CCN(CC(=O)O)CCN(CC(=O)O)CCN(CC(=O)O)CC1)C(=O)*)CCCS(=O)(=O)[O-]; DOTA(In) = O=C1CN2CCN3CCN(CC(=O)*)CCN(CC2)CC(=O)[O][In]([O]1)[O]C(=O)C3; CH3O(CH2CH2O)11CH2CH2CO = COCCOCCOCCOCCOCCOCCOCCOCCOCCOCCOCCOCCC(=O)*; Pro(cis-4-F) = O=C(O)[C@@H]1C[C@H](F)CN1; Dopa = N[C@@H](Cc1ccc(O)c(O)c1)C(=O)O; Hyp = O=C(O)[C@@H]1C[C@@H](O)CN1; hPhe = N[C@@H](CCc1ccccc1)C(=O)O; Pentanoyl(4-Me) = CC(C)CCC(=O)*; Cit = NC(=O)NCCC[C@H](N)C(=O)O; Cysteamide = C(CS[*:3])N[*:1]; Butoxycarbonyl = CCCCOC(=O)*; Orn = NCCC[C@H](N)C(=O)O; dDap = NC[C@@H](N)C(=O)O; Nva = CCC[C@H](N)C(=O)O; Pentanoyl = CCCCC(=O)*

Tests used:
human uPAR (uPAR-Fc) = target: T1, human uPAR (uPAR-Fc) (Homo sapiens, UniProt Q03405); test: Surface plasmon resonance (SPR) assay, single cycle kinetics; assay type: binding; details: pKD category for uPAR SPR activity assay, uPAR-Fc on Protein A-Chip, 25°C; for Kd: read-out: pKD CAT (converted)
T1 construct: comprising amino acids Leu23-Arg303 according to UniProt entry Q03405.1; purchased R&D Systems 10378-UK-100
T1 sequence (Q03405 23-303): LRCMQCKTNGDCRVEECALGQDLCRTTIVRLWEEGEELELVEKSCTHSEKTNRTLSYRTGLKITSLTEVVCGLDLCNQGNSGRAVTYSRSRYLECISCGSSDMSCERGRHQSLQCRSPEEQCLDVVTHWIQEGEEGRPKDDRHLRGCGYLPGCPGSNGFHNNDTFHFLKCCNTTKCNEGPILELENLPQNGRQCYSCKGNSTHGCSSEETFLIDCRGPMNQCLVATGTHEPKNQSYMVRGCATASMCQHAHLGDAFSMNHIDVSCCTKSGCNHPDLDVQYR
Procedure: Surface plasmon resonance (SPR) is an optical technique used to measure molecular interactions in real time. SPR occur when plane-polarized light hits a metal film under total internal reflection conditions. SPR signal is directly dependent on the refractive index of the medium on the sensor chip. In an SPR experiment, one molecule (i.e. uPAR) is immobilized on a sensor chip and binding to a second molecule (i.e. test compounds) is measured under flow. The binding of the compound on the surface changes the refractive index. In responses the reflection angle changes as compounds bind and dissociate on the immobilized protein on the surface. This response is measured in resonance units (RU). The RUs are proportional to the number of molecules bound to the surface. […] Kinetic binding constants and equilibrium binding constants can be derived from the sensorgrams.
Surface plasmon resonance (SPR) studies were performed using a Biacore™ T200 or S200 SPR system (Cytiva, formerly GE Life Sciences) to assess binding of compounds to recombinant uPAR protein.
In this example recombinant protein comprising the extracellular domains of human uPAR (uPAR-Fc, R&D Systems, CAT 10378-UK-100, comprising amino acids Leu23-Arg303 according to UniProt entry Q03405.1 and Fc region of human IgG1 at the C-terminus) was immobilized on a Protein A-Chip (Cytiva, CAT 29127555) according to the supplier's instructions. uPAR-Fc was diluted in Running Buffer (10 mM HEPES, 150 mM NaCl, 50 µM EDTA, 0.1% DMSO, 0.05% Tween-20, pH 7.4) to a final concentration of 100 nM and then flushed over the Protein A-Chip to immobilized ~2000 RUs.
Stock solutions of test compounds were prepared by dissolving each compound in DMSO. DMSO stock solution were diluted 1: 1000 in Running Buffer without DMSO. Further sequential dilutions were made with Running Buffer containing 0.1% DMSO. SPR binding analyses were performed in Single Cycle Kinetic (SCK) mode at 25°C. Flow cell without immobilized uPAR-Fc served as reference flow cell. The chip was regenerated with 10 mM Glycine, pH 1,5 to remove the uPAR-Fc from the chip surface after each SCK run. After every three SCK measurements, a blank run with Running Buffer instead of test compound was included to correct for baseline drifts (double reference substraction method). Table 11: SPR protocol steps for SCK with uPAR-Fc immobilized on a Protein A-Chip.
For each test compound, SPR raw data sensorgrams were recorded using the Biacore™ T200 or S200 control software. Sensorgrams were processed and analyzed with the Biacore™ Insight Evaluation software. […] The reference subtracted sensorgram for each test compound was further corrected for baseline drift by subtracting the sensorgram of a reference subtracted blank run (Running Buffer only). The dissociation constant (KD) was calculated from the double reference subtracted sensorgrams using the 1:1 Langmuir binding model. The pKD value (negative decadic logarithm of dissociation constant) was calculated using Microsoft Excel.

[1] = target: T2, uPAR-expressing HEC-265 human endometrial adenocarcinoma cells (Homo sapiens, UniProt Q03405); test: Competitive FACS binding assay; details: pIC50 category of FACS binding
T2 construct: Cell surface uPAR-expressing HEC-265 human endometrial adenocarcinoma cells; host or cells: HEC-265
T2 sequence (Q03405 23-335): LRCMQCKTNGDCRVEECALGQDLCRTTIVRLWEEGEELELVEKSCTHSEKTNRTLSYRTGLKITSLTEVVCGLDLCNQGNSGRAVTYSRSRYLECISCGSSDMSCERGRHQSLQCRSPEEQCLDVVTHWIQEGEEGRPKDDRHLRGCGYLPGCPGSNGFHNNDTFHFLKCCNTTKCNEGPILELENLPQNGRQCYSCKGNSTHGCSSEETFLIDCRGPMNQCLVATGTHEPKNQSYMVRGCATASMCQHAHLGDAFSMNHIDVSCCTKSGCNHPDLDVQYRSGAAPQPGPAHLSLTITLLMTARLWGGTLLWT
Procedure: In order to determine binding of compounds according to the present invention to uPAR-expressing cells, a competitive FACS binding assay was established.
Cell surface uPAR-expressing HEC-265 human endometrial adenocarcinoma cells (Japanese Collection of Research Bioresources, #JCRB1142) were cultured in MEM Eagle with stable glutamine (Pan Biotech, #P04-09500) including 15% fetal bovine serum (Pan Biotech, #P30-3306) and 100 U/ml penicillin and 100 µg/mL streptomycin (Pan Biotech, #P06-07100). Cells were detached with Cell Dissociation Buffer (Thermo Scientific, #13151014) and washed in FACS buffer (PBS (Pan Biotech, #P04-36500) including 1% BSA (SeraCare, #AP-4510-80). Cells were diluted in FACS buffer to a final concentration of 500.000 cells per ml and 200 µl of the cell suspension are transferred to a u-shaped non-binding 96-well plate (Greiner Bio-One, #650901).
For IC50 determination, cells were incubated with 10 nM Bio--Ttds--Ttds--Ttds--Ttds-D-Cha-FsrYLWS-NH2) in the presence of increasing concentrations of non-labeled test compounds at 4°C for 1 hour. Cells were washed twice in FACS buffer. An additional incubation step with 1 µg/mL APC-Streptavidin (Miltenyi; #130-106-791) in 50 µL FACS buffer for 30 minutes on ice was performed followed by two washes with FACS buffer. Cells were resuspended in 200 µl FACS buffer and analyzed in an Attune NxT flow cytometer. Median fluorescence intensities (APC channel) were calculated by Attune NxT software and plotted against peptide concentrations. Four parameter logistic (4PL) curve fitting and pIC50 calculations were performed using ActivityBase software.

Row | Kd (human uPAR (uPAR-Fc)) [nM] | IC50 [1] [nM] | Kd (human uPAR (uPAR-Fc); single cycle kinetics) [nM] | pKD CAT (human uPAR (uPAR-Fc)) | pIC50 CAT [1] | Molecule
1 | < 1.58 | ≤ 10 | – | – | – | CCCCC(=O)N[C@H]1CSSC[C@@H](C(N)=O)NC(=O)[C@H](CCC)NC(=O)[C@H]([C@@H](C)CC)NC(=O)[C@@H](CN)NC(=O)[C@@H]2CCCN2C(=O)[C@H](Cc2ccccc2)NC(=O)[C@H](Cc2ccc(O)cc2)NC(=O)[C@H](CCC(N)=O)NC(=O)[C@H](CCCNC(=N)N)NC1=O [UPAR-330, Pent-[Cys-Arg-Gln-Tyr-Phe-Pro-dap-Ile-Nva-Cys]-NH2] (Pentanoyl-CRQYFP[dDap]I[Nva]C-NH2; disulfide 1-10)
2 | – | 12.6 to 31.6 | 10 to 100 | – | – | CCCCC(=O)N[C@H]1CSSC[C@@H](C(N)=O)NC(=O)[C@H](CCC)NC(=O)[C@H]([C@@H](C)CC)NC(=O)[C@@H]2C[C@@H](O)CN2C(=O)[C@@H]2CCCN2C(=O)[C@H](Cc2ccccc2)NC(=O)[C@H](CCc2ccccc2)NC(=O)[C@H](CCC(N)=O)NC(=O)[C@H](CCCNC(=N)N)NC1=O [UPAR-366, Pent-[Cys-Arg-Gln-Hfe-Phe-Pro-Hyp-Ile-Nva-Cys]-NH2] (Pentanoyl-CRQ[hPhe]FP[Hyp]I[Nva]C-NH2; disulfide 1-10)
3 | – | ≤ 10 | < 1.58 | – | – | CCCCC(=O)N[C@H]1CSSCCNC(=O)[C@H](CCC)NC(=O)[C@H]([C@@H](C)CC)NC(=O)[C@@H]2C[C@@H](O)CN2C(=O)[C@@H]2CCCN2C(=O)[C@H](Cc2ccccc2)NC(=O)[C@H](Cc2ccc(O)cc2)NC(=O)[C@H](CCC(N)=O)NC(=O)[C@H](CCCNC(=N)N)NC1=O [UPAR-481, Pent-[Cys-Arg-Gln-Tyr-Phe-Pro-Hyp-Ile-Nva-AET]] (Pentanoyl-CRQYFP[Hyp]I[Nva]-Cysteamide; disulfide 1-C)
4 | > 100 | ≥ 126 | – | – | – | CC(C)CCC(=O)N[C@H]1CSSC[C@@H](C(N)=O)NC(=O)[C@H](CC(C)C)NC(=O)[C@H](C)NC(=O)[C@@H](C)NC(=O)[C@@H]2CCCN2C(=O)[C@H](Cc2ccccc2)NC(=O)[C@H](Cc2ccc(O)cc2)NC(=O)[C@H](CCC(N)=O)NC(=O)[C@H](CCCNC(N)=O)NC1=O [UPAR-164, iHex-[Cys-Cit-Gln-Tyr-Phe-Pro-ala-Ala-Leu-Cys]-NH2] ({Pentanoyl(4-Me)}-C[Cit]QYFP[dA]ALC-NH2; disulfide 1-10)
5 | – | – | – | A (pKD values ≥ 8.8) | A (pIC50 values ≥8.0) | Pent-[Cys-Orn(mPEG12)-Lys(InDOTA)-Tyr-Phe-Pro-Hyp-Ile-Nva-Cys]-NH2 (Pentanoyl-C[Orn](CH3O(CH2CH2O)11CH2CH2CO)K(DOTA(In))YFP[Hyp]I[Nva]C-NH2; disulfide 1-10; not fully specified; also: In(III) complexed by DOTA) [UPAR-311]

Row | Molecule | Kd (human uPAR (uPAR-Fc)) [nM] | IC50 [1] [nM] | Kd (human uPAR (uPAR-Fc); single cycle kinetics) [nM] | pKD CAT (human uPAR (uPAR-Fc)) | pIC50 CAT [1]
6 | CCCCOC(=O)N[C@H]1CSSC[C@@H](C(N)=O)NC(=O)[C@H](CCC)NC(=O)[C@H]([C@@H](C)CC)NC(=O)[C@@H]2C[C@@H](O)CN2C(=O)[C@@H]2C[C@H](F)CN2C(=O)[C@H](Cc2ccccc2)NC(=O)[C@H](Cc2ccc(O)c(O)c2)NC(=O)[C@H](CCCCNC(=O)[C@H](CCCC[N+](C)(C)CCCS(=O)(=O)[O-])NC(=O)CN2CCN(CC(=O)O)CCN(CC(=O)O)CCN(CC(=O)O)CC2)NC(=O)[C@H]([C@@H](C)O)NC1=O [UPAR-194, Butoc-[Cys-Thr-Lys(DOTA-Kzw)-Dopa-Phe-4Cfp-Hyp-Ile-Nva-Cys]-NH2] (Butoxycarbonyl-CTK(X4)[Dopa]F[Pro(cis-4-F)][Hyp]I[Nva]C-NH2; disulfide 1-10) | < 1.58 | ≤ 10 | – | – | –
